These results are taken from patent EP0341318A1, “NOVEL PLATINUM (II) COMPLEX, PROCESS FOR PREPARING THE SAME, AND THERAPEUTIC AGENT FOR MALIGNANT TUMOR” (TORAY INDUSTRIES, INC., priority 1987, dated 1989).

One may read the LD50 as the dose at which mortality reaches 50%. A lower LD50 goes with a more toxic substance.

In one data set the test system is L1210 murine leukemia. The data set is described as follows: Antitumor activity against L1210 murine leukemia in mice. The class given is in vivo, CDF1 mice. Conditions: for Survival days (mean±SD): administered on 1st, 5th and 9th days after tumor inoculation, CDF1 mice, 10^5 L1210 cells i.p.; for T/C (%) / Survival rate: days 1, 5, 9; for T/C (%): L1210 in CDF1 mice; for Survival rate: Number of 30 days survival mice / group. How it is done: L1210 murine leukemia cells which were subcultured in DBA/2 mouse were inoculated intraperitoneally into CDF1 mice at 10^5 cells/mouse. Each experimental group was composed of 6-10 mice (male, 6-weeks old). Each test compound was administered three times, i.e., on the lst, 5th and 9th days after tumor inoculation. CBDCA and CDDP were used as control drugs in this experiment. Each compound was dissolved or suspended in 0.05% Tween 80 solution and administered in mice. Antitumor activity against L1210 leukemia was determined by T/C value calculated by the following equation and by the number of 30 days survival mice. [formula]
The antitumor activities of the compounds Nos. 3 to 5 of this invention were determined in the same way as in Example 6.

A further data set concerns Slc:ICR mice. The data set is described as follows: Acute toxicity test on mice. The class given is in vivo. The note with it: intraperitoneal injection, Slc:ICR mice (male, 5 weeks old), mortality on the 14th day. On the procedure:
Each test compound was intraperitoneally injected into Slc:ICR mice (male, 5 weeks old). Each compound was formulated into a solution or suspension in a 0.05% Tween 80 solution. The LD50 value was calculated from mortality found on the 14th day after said injection.

Values joined by “and” are separate entries in the source; they are usually repeats but may differ in a detail not shown here. Identical values can stand only once.

Regarding “2-(2-(2-Methoxyethoxy)ethoxy)ethyl 2,2-dimethyl-6,6,7,7,8,8,8-heptafluoro-3,5-dioxooctanoate- hydroxo(trans-l-1,2-diamino-cyclohexane)platinum(II) [Compound No. 4]”, the “Survival days (mean±SD)” value was determined as 10.7 ± 2.7 days in the data set on L1210 murine leukemia (Dose 1 mg/kg); 20.8 ± 7.8 days in the data set on L1210 murine leukemia (Dose 10 mg/kg); 23.7 ± 5.9 days in the data set on L1210 murine leukemia (Dose 25 mg/kg); 11.5 ± 9.5 days in the data set with L1210 murine leukemia (Dose 50 mg/kg); 2.0 ± 0.0 days with L1210 murine leukemia (Dose 100 mg/kg); 2.0 ± 0.0 days with L1210 murine leukemia (Dose 200 mg/kg). The “T/C (%)” value in the data set on L1210 murine leukemia (Dose 1 mg/kg) was 127%; in the data set on L1210 murine leukemia (Dose 10 mg/kg) it was 248%; with L1210 murine leukemia (Dose 25 mg/kg), 282%; in the data set with L1210 murine leukemia (Dose 50 mg/kg) it was 137%; in the data set on L1210 murine leukemia (Dose 100 mg/kg) it was 24%; in the data set on L1210 murine leukemia (Dose 200 mg/kg), 24%. Moreover, the Survival rate was 0/6 with L1210 murine leukemia (dose 1 mg/kg); 2/6 in the data set on L1210 murine leukemia (dose 10 mg/kg); 2/6 with L1210 murine leukemia (dose 25 mg/kg); 1/6 in the data set with L1210 murine leukemia (dose 50 mg/kg); 0/6 in the data set with L1210 murine leukemia (dose 100 mg/kg); 0/6 with L1210 murine leukemia (dose 200 mg/kg).

As to “3-Heptafluorobutyryl-D-camphor-hydroxo(trans-l-1,2-diaminocyclohexane)platinum(II) [Compound No. 5]”, the “Survival days (mean±SD)” value in the data set with L1210 murine leukemia (Dose 1 mg/kg) was determined as 9.0 ± 0.6 days; in the data set with L1210 murine leukemia (Dose 10 mg/kg), 14.7 ± 2.3 days; with L1210 murine leukemia (Dose 25 mg/kg) it was 19.8 ± 6.1 days; in the data set with L1210 murine leukemia (Dose 50 mg/kg), 15.3 ± 7.1 days; in the data set with L1210 murine leukemia (Dose 100 mg/kg), 4.2 ± 1.0 days; in the data set with L1210 murine leukemia (Dose 200 mg/kg), 2.0 ± 0.0 days. Also, the “T/C (%)” value is 111% with L1210 murine leukemia (Dose 1 mg/kg); 181% with L1210 murine leukemia (Dose 10 mg/kg); 244% with L1210 murine leukemia (Dose 25 mg/kg); 189% with L1210 murine leukemia (Dose 50 mg/kg); 52% with L1210 murine leukemia (Dose 100 mg/kg); 25% with L1210 murine leukemia (Dose 200 mg/kg). Further, the Survival rate in the data set on L1210 murine leukemia (dose 1 mg/kg) is 0/6; with L1210 murine leukemia (dose 10 mg/kg), 0/6; in the data set on L1210 murine leukemia (dose 25 mg/kg) it was 1/6; with L1210 murine leukemia (dose 50 mg/kg) it was 0/6; in the data set with L1210 murine leukemia (dose 100 mg/kg), 0/6; with L1210 murine leukemia (dose 200 mg/kg), 0/6. Also, in the data set with Slc:ICR mice, the LD50 stood at 47 mg/kg.

Take `N.N.[Cl][Pt][Cl]` [CDDP, cis-diamminedichloroplatinum(II), reference compound]: the “Survival days (mean±SD)” value in the data set with L1210 murine leukemia (Dose 2.5 mg/kg, 2.5 mg/kg) is 14.7 ± 2.7 days and 12.0 ± 3.0 days and 13.2 ± 2.9 days; in the data set on L1210 murine leukemia (Dose 5.0 mg/kg, 5 mg/kg), 18.8 ± 4.3 days and 14.3 ± 2.9 days and 13.7 ± 1.5 days and 16.0 ± 2.8 days; with L1210 murine leukemia (Dose 7.5 mg/kg, 7.5 mg/kg), 18.7 ± 3.1 days and 15.5 ± 2.1 days and 14.2 ± 2.4 days. The “T/C (%)” value was 181% and 143% and 163% with L1210 murine leukemia (Dose 2.5 mg/kg); 232% and 170% and 163% and 198% in the data set on L1210 murine leukemia (Dose 5.0 mg/kg); 231% and 185% and 175% in the data set on L1210 murine leukemia (Dose 7.5 mg/kg). Also, the Survival rate in the data set with L1210 murine leukemia (dose 2.5 mg/kg), in the data set on L1210 murine leukemia (dose 5.0 mg/kg) and with L1210 murine leukemia (dose 7.5 mg/kg) was 0/6 in each case.

Turning to `CC(C)(C)C(=O)C=C([O-])C(F)(F)C(F)(F)C(F)(F)F.N[C@@H]1CCCC[C@H]1N.[OH-].[Pt+2]` [Compound No. 1, 2,2-Dimethyl-6,6,7,7,8,8,8-heptafluoro-3,5-octanedione-hydroxo(trans-I-1,2-diaminocyclohexane)platinum(II)], the “Survival days (mean±SD)” value with L1210 murine leukemia (Dose 1 mg/kg) was 10.5 ± 1.2 days; with L1210 murine leukemia (Dose 10 mg/kg) it was 29.5 ± 1.2 days; with L1210 murine leukemia (Dose 25 mg/kg) it was 29.7 ± 0.5 days; with L1210 murine leukemia (Dose 50 mg/kg), 24.0 ± 10.3 days; in the data set with L1210 murine leukemia (Dose 100 mg/kg) it was 5.2 ± 1.9 days; with L1210 murine leukemia (Dose 200 mg/kg), 1.7 ± 0.5 days. Besides, the “T/C (%)” value in the data set on L1210 murine leukemia (Dose 1 mg/kg) was 130%; with L1210 murine leukemia (Dose 10 mg/kg), 364%; in the data set with L1210 murine leukemia (Dose 10 mg/kg, listed as compound No. 1, 10 mg/kg) it was “greater than 360%”; with L1210 murine leukemia (Dose 25 mg/kg), 367%; in the data set with L1210 murine leukemia (Dose 25 mg/kg, listed as compound No. 1, 25 mg/kg), “greater than 360%”; in the data set on L1210 murine leukemia (Dose 50 mg/kg), 296%. Besides, the “T/C (%)” value in the data set with L1210 murine leukemia (Dose 100 mg/kg) is 64%; in the data set on L1210 murine leukemia (Dose 200 mg/kg), 21%. The Survival rate with L1210 murine leukemia (dose 1 mg/kg) was 0/6; with L1210 murine leukemia (dose 10 mg/kg), 4/6; in the data set on L1210 murine leukemia (dose 25 mg/kg), 4/6; in the data set on L1210 murine leukemia (dose 50 mg/kg), 4/6; with L1210 murine leukemia (dose 100 mg/kg), 0/6; with L1210 murine leukemia (dose 200 mg/kg), 0/6. In the data set on L1210 murine leukemia (comparison in words with control drugs, L1210 in mice), the antitumor activity entry is “higher than CDDP and CBDCA”. This molecule displayed an LD50 in the data set on Slc:ICR mice of 35 mg/kg.

Consider `N[C@@H]1CCCC[C@H]1N.O=C(O)CC(=O)C=C([O-])C(F)(F)C(F)(F)C(F)(F)F.[OH-].[Pt+2]` [Compound No. 3, 6,6,7,7,8,8,8-Heptafluoro-3,5-dioxooctanoic acid hydroxo-(trans-l-1,2-diaminocyclohexane)platinum(II)], for which the “Survival days (mean±SD)” value stood at 9.7 ± 1.4 days in the data set on L1210 murine leukemia (Dose 1 mg/kg); 9.7 ± 1.4 days in the data set on L1210 murine leukemia (Dose 10 mg/kg); 11.0 ± 0.9 days with L1210 murine leukemia (Dose 25 mg/kg); 11.8 ± 0.8 days with L1210 murine leukemia (Dose 50 mg/kg); 14.0 ± 2.7 days with L1210 murine leukemia (Dose 100 mg/kg); 11.2 ± 3.7 days with L1210 murine leukemia (Dose 200 mg/kg). Also, the “T/C (%)” value in the data set with L1210 murine leukemia (Dose 1 mg/kg) was 115%; with L1210 murine leukemia (Dose 10 mg/kg), 115%; with L1210 murine leukemia (Dose 25 mg/kg), 131%; in the data set with L1210 murine leukemia (Dose 50 mg/kg) it was 140%; in the data set on L1210 murine leukemia (Dose 100 mg/kg) it was 167%; in the data set on L1210 murine leukemia (Dose 200 mg/kg), 133%. For the same molecule, the Survival rate in the data set on L1210 murine leukemia (dose 1 mg/kg), in the data set with L1210 murine leukemia (dose 10 mg/kg), in the data set with L1210 murine leukemia (dose 25 mg/kg), in the data set with L1210 murine leukemia (dose 50 mg/kg), in the data set on L1210 murine leukemia (dose 100 mg/kg) and in the data set with L1210 murine leukemia (dose 200 mg/kg) was 0/6 throughout. In addition, in the data set with Slc:ICR mice, the LD50 was >200 mg/kg.

For “cis-diammine-1,1-cyclobutanedicarboxylate platinum(II) [CBDCA, reference compound]”, the “Survival days (mean±SD)” value stood at 8.3 ± 0.5 days with L1210 murine leukemia (Dose 1 mg/kg); 9.3 ± 0.5 days in the data set with L1210 murine leukemia (Dose 10 mg/kg); 10.1 ± 1.3 days in the data set with L1210 murine leukemia (Dose 25 mg/kg); 13.1 ± 2.3 days in the data set with L1210 murine leukemia (Dose 50 mg/kg); 14.1 ± 3.7 days with L1210 murine leukemia (Dose 100 mg/kg); 9.6 ± 0.7 days in the data set on L1210 murine leukemia (Dose 200 mg/kg). The “T/C (%)” value in the data set with L1210 murine leukemia (Dose 1 mg/kg) came out at 98%; with L1210 murine leukemia (Dose 10 mg/kg), 109%; with L1210 murine leukemia (Dose 25 mg/kg), 119%; in the data set on L1210 murine leukemia (Dose 50 mg/kg) it was 156%; with L1210 murine leukemia (Dose 100 mg/kg), 166%; in the data set with L1210 murine leukemia (Dose 200 mg/kg) it was 113%. Further, the Survival rate in the data set on L1210 murine leukemia (dose 1 mg/kg), in the data set on L1210 murine leukemia (dose 10 mg/kg), with L1210 murine leukemia (dose 25 mg/kg), in the data set with L1210 murine leukemia (dose 50 mg/kg), in the data set with L1210 murine leukemia (dose 100 mg/kg) and with L1210 murine leukemia (dose 200 mg/kg) was 0/10 throughout.
